Tests used:
[1] = test system: barnyardgrass; assay: Test B pre-/postemergence herbicide test; assay type: in vivo, Echinochloa crus-galli; conditions: for Barnyardgrass plant response rating: postemergence, visual rating
Summary of the method: (§1)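 Flooded paddy rice and barnyardgrass were treated at the 2-leaf stage; upland plantings received compound either on sown seed or on 1- to 4-leaf seedlings. All were kept 13–15 days in a greenhouse and scored visually, 0–100, relative to untreated plants.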

[2] = test system: Surinam grass; assay: Test B pre-/postemergence herbicide test; assay type: in vivo, Urochloa decumbens; conditions: for Surinam Grass plant response rating: postemergence, visual rating
Summary of the method: (§2)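 Visual rating, 0 (no effect) to 100 (complete control), versus untreated controls after 13–15 d in greenhouse. Pre- and postemergence applications (postemergence plants 2–18 cm, 1–4 leaves); flooded paddy arm at 2-leaf stage. Compounds in non-phytotoxic solvent plus surfactant.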

[3] = test system: cocklebur; assay: Test B pre-/postemergence herbicide test; assay type: in vivo, Xanthium strumarium; conditions: for Cocklebur plant response rating: postemergence, visual rating
Summary of the method: as §1

[4] = test system: corn; assay: Test B pre-/postemergence herbicide test; assay type: in vivo, Zea mays; conditions: for Corn plant response rating: postemergence, visual rating
Summary of the method: as §2

[5] = test system: large crabgrass; assay: Test B pre-/postemergence herbicide test; assay type: in vivo, Digitaria sanguinalis; conditions: for Crabgrass, Large plant response rating: postemergence, visual rating
Summary of the method: as §2

[6] = test system: giant foxtail; assay: Test B pre-/postemergence herbicide test; assay type: in vivo, Setaria faberi; conditions: for Foxtail, Giant plant response rating: postemergence, visual rating
Summary of the method: as §2

[7] = test system: lambsquarters; assay: Test B pre-/postemergence herbicide test; assay type: in vivo, Chenopodium album; conditions: for Lambsquarters plant response rating: postemergence, visual rating
Summary of the method: as §2

[8] = test system: morningglory; assay: Test B pre-/postemergence herbicide test; assay type: in vivo, Ipomoea coccinea; conditions: for Morningglory plant response rating: postemergence, visual rating
Summary of the method: as §1

[9] = test system: pigweed; assay: Test B pre-/postemergence herbicide test; assay type: in vivo, Amaranthus retroflexus; conditions: for Pigweed plant response rating: postemergence, visual rating
Summary of the method: as §2

[10] = test system: velvetleaf; assay: Test B pre-/postemergence herbicide test; assay type: in vivo, Abutilon theophrasti; conditions: for Velvetleaf plant response rating: postemergence, visual rating
Summary of the method: as §2

[11] = test system: blackgrass; assay: Test B postemergence herbicide test; assay type: in vivo, Alopecurus myosuroides; conditions: scale 0 (no effect) to 100 (complete control); for Blackgrass plant response rating: postemergence, visual rating
Summary of the method: (§3)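 After treating 2-leaf paddy plants or 2–18 cm postemergence plants (1 to 4 leaves) with formulated chemical, researchers kept them in a greenhouse for 13–15 days. Effects were judged visually versus controls: 0 indicates none, 100 total control.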

[12] = test system: wild oat; assay: Test B postemergence herbicide test; assay type: in vivo, Avena fatua; conditions: scale 0 (no effect) to 100 (complete control); for Oat, Wild plant response rating: postemergence, visual rating
Summary of the method: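 Treated at 2-leaf (paddy) or 1–4-leaf, 2–18 cm (postemergence); greenhouse 13–15 d; visual score vs control, 0 none to 100 complete control; dash = not tested.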

[13] = test system: rice; assay: Test B flooded paddy test; assay type: in vivo, Oryza sativa; conditions: 1000 g ai/ha, visual rating, scale 0 to 100 (0 no effect, 100 complete control), 13 to 15 days
Summary of the method: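 Read-out: visual comparison with controls, scored 0 to 100, where 100 means complete control and 0 no effect. Formulated chemicals were applied postemergence to plants 2–18 cm tall (1- to 4-leaf), or to flooded-paddy plants at the 2-leaf stage, then held 13 to 15 days under glass.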

[14] = test system: small flower umbrella sedge; assay: Test B flooded paddy test; assay type: in vivo, Cyperus difformis; conditions: 1000 g ai/ha, visual rating, scale 0 to 100 (0 no effect, 100 complete control), 13 to 15 days
Summary of the method: as §3

[15] = test system: ducksalad; assay: Test B flooded paddy test; assay type: in vivo, Heteranthera limosa; conditions: 1000 g ai/ha, visual rating, scale 0 to 100 (0 no effect, 100 complete control), 13 to 15 days
Summary of the method: as §3

[16] = 500 g ai/ha, visual rating 0-100, 0 no effect, 100 complete control, preemergence
[17] = Postemergence, 500 g ai/ha, visual rating after 13 to 15 days, scale 0 (no effect) to 100 (complete control)
[18] = 125 g ai/ha, scale 0 (no effect) to 100 (complete control)
[19] = preemergence, 125 g ai/ha, 0 to 100 scale, 0 is no effect, 100 is complete control
[20] = Postemergence, 500 g ai/ha, visual rating after 13 to 15 days
[21] = 500 g ai/ha, scale 0 (no effect) to 100 (complete control)

CCOC(=O)c1cc(NC(=O)c2cc(C(C)(C)C)nn2CC)ccc1OCC [Compound 95]
Plant response rating, Barnyardgrass [1, 16]: 80
Plant response rating, Barnyardgrass [1, 17]: 20
Barnyardgrass plant response rating [1, 18]: 0
Plant response rating, Barnyardgrass [1, 19]: 50
Plant response rating, Surinam Grass [2, 16]: 70
Plant response rating, Surinam Grass [2, 17]: 20
Surinam Grass plant response rating [2, 18]: 20
Plant response rating, Surinam Grass [2, 19]: 20
Plant response rating, Cocklebur [3, 16]: 0
Plant response rating, Cocklebur [3, 17]: 70
Cocklebur plant response rating [3, 18]: 60
Plant response rating, Cocklebur [3, 19]: 0
Plant response rating, Corn [4, 16]: 60
Plant response rating, Corn [4, 17]: 10
Corn plant response rating [4, 18]: 10
Plant response rating, Corn [4, 19]: 60
Plant response rating, Crabgrass, Large [5, 16]: 90
Plant response rating, Crabgrass, Large [5, 17]: 50
Crabgrass, Large plant response rating [5, 18]: 0
Plant response rating, Crabgrass, Large [5, 19]: 60
Plant response rating, Foxtail, Giant [6, 16]: 100
Plant response rating, Foxtail, Giant [6, 17]: 30
Foxtail, Giant plant response rating [6, 18]: 10
Plant response rating, Foxtail, Giant [6, 19]: 50
Plant response rating, Lambsquarters [7, 16]: 100
Plant response rating, Lambsquarters [7, 17]: 100
Lambsquarters plant response rating [7, 18]: 100
Plant response rating, Lambsquarters [7, 19]: 100
Plant response rating, Morningglory [8, 17]: 60
Morningglory plant response rating [8, 18]: 0
Plant response rating, Morningglory [8, 19]: 10
Plant response rating, Pigweed [9, 16]: 100
Plant response rating, Pigweed [9, 17]: 100
Pigweed plant response rating [9, 18]: 90
Plant response rating, Pigweed [9, 19]: 100
Plant response rating, Velvetleaf [10, 16]: 60
Plant response rating, Velvetleaf [10, 17]: 60
Velvetleaf plant response rating [10, 18]: 50
Plant response rating, Velvetleaf [10, 19]: 0
Plant response rating, Blackgrass [11, 20]: 0
Blackgrass plant response rating ([11]; 125 g ai/ha): 0
Plant response rating, Oat, Wild [12, 20]: 20
Oat, Wild plant response rating ([12]; 125 g ai/ha): 10
Rice plant response rating [13]: 60
Sedge, Umbrella plant response rating [14]: 80
Ducksalad plant response rating [15]: 80

CCn1nc(C(C)(C)C)cc1C(=O)Nc1cccc(C(C)=O)c1 [Compound 122]
Plant response rating, Barnyardgrass [1, 16]: 90
Barnyardgrass plant response rating [1, 18]: 0
Barnyardgrass plant response rating [1, 21]: 20
Plant response rating, Barnyardgrass [1, 19]: 80
Plant response rating, Surinam Grass [2, 16]: 70
Surinam Grass plant response rating [2, 18]: 10
Surinam Grass plant response rating [2, 21]: 10
Plant response rating, Surinam Grass [2, 19]: 20
Plant response rating, Cocklebur [3, 16]: 70
Cocklebur plant response rating [3, 18]: 70
Cocklebur plant response rating [3, 21]: 90
Plant response rating, Cocklebur [3, 19]: 20
Plant response rating, Corn [4, 16]: 30
Corn plant response rating [4, 18]: 10
Corn plant response rating [4, 21]: 10
Plant response rating, Corn [4, 19]: 0
Plant response rating, Crabgrass, Large [5, 16]: 100
Crabgrass, Large plant response rating [5, 18]: 10
Crabgrass, Large plant response rating [5, 21]: 10
Plant response rating, Crabgrass, Large [5, 19]: 90
Plant response rating, Foxtail, Giant [6, 16]: 80
Foxtail, Giant plant response rating [6, 18]: 10
Foxtail, Giant plant response rating [6, 21]: 20
Plant response rating, Foxtail, Giant [6, 19]: 50
Plant response rating, Lambsquarters [7, 16]: 100
Lambsquarters plant response rating [7, 18]: 0
Lambsquarters plant response rating [7, 21]: 0
Plant response rating, Lambsquarters [7, 19]: 80
Plant response rating, Morningglory [8, 16]: 70
Morningglory plant response rating [8, 18]: 0
Morningglory plant response rating [8, 21]: 0
Plant response rating, Morningglory [8, 19]: 20
Plant response rating, Pigweed [9, 16]: 80
Pigweed plant response rating [9, 18]: 0
Pigweed plant response rating [9, 21]: 10
Plant response rating, Pigweed [9, 19]: 70
Plant response rating, Velvetleaf [10, 16]: 60
Velvetleaf plant response rating [10, 18]: 10
Velvetleaf plant response rating [10, 21]: 20
Plant response rating, Velvetleaf [10, 19]: 40
Blackgrass plant response rating ([11]; 125 g ai/ha): 0
Blackgrass plant response rating ([11]; 500 g ai/ha): 10
Oat, Wild plant response rating ([12]; 125 g ai/ha): 10
Oat, Wild plant response rating ([12]; 500 g ai/ha): 40
Rice plant response rating [13]: 70
Sedge, Umbrella plant response rating [14]: 80
Ducksalad plant response rating [15]: 80

— US20060069132A1, “Azolecarboxamide herbicides” (priority 2004, published 2006)
